Reference: ChEMBL document CHEMBL4364275, “Jietacins, azoxy natural products, as novel NF-κB inhibitors: Discovery, synthesis, biological activity, and mode of action” (Eur J Med Chem, 2019)
In brackets after ≈: the same amount, converted by molar mass. Activity calls are given as the source filed them. No cut-off for these calls is given here.

Key:
ATN-1 = assay: Antiproliferative activity against human ATN1 cells assessed as reduction in cell viability measured after 24 hrs by MTT assay; type: functional; conditions: ATN-1, 24 h, read-out: ED50 (the source's name)
K562 = assay: Antiproliferative activity against human K562 cells assessed as reduction in cell viability at 10 ug/ml measured after 24 hrs by MTT assay relative to control; type: functional
Homo sapiens [1] = species on record: Homo sapiens; assay: Inhibition of NF-kappaB localization in nucleus of human L540 cells at 6 ug/ml measured after 5 hrs by DAPI staining immunofluorescence microscopy
Homo sapiens [2] = species on record: Homo sapiens; assay: Inhibition of NF-kappaB localization in nucleus of human L540 cells at 3 ug/ml measured after 5 hrs by DAPI staining immunofluorescence microscopy
Homo sapiens [3] = species on record: Homo sapiens; assay: Inhibition of NF-kappaB localization in nucleus of human L540 cells at 5 ug/ml measured after 5 hrs by DAPI staining immunofluorescence microscopy

Compound	EC50 (ATN-1)	Activity (K562)	inhibition (Homo sapiens [1])	inhibition (Homo sapiens [2])	inhibition (Homo sapiens [3])
C=C/[N+]([O-])=N/CCCCCCCCn1ccnn1	1.01 µg/mL (≈ 4.02 µM)	<20%			
C=C/[N+]([O-])=N/CCCCCCCC(=O)CCCCCCC(C)C	1.17 µg/mL (≈ 3.61 µM)	<20%	Active		
C=C/[N+]([O-])=N/CCCCCCCCn1cc(C(C)(C)C)nn1	0.69 µg/mL (≈ 2.24 µM)	<20%		Active	
C=C/[N+]([O-])=N/CCCCCCCCn1cc(-c2ccc(N)cc2)nn1	0.76 µg/mL (≈ 2.22 µM)	<20%			
C=C/[N+]([O-])=N/CCCCCCCCO	1.05 µg/mL (≈ 5.24 µM)	<20%			
C=C/[N+]([O-])=N/CCCCCCCCn1cc(C2(O)CCCCC2)nn1	1.31 µg/mL (≈ 3.75 µM)	<20%			
C=C/[N+]([O-])=N/CCCCCCCCn1cc(C(C)C)nn1	0.84 µg/mL (≈ 2.86 µM)	<20%			
C=C/[N+]([O-])=N/CCCCCCCC(=O)CCCCC[C@H](C)CC	1.49 µg/mL (≈ 4.59 µM)	<20%			
C=C/[N+]([O-])=N/CCCCCCCCn1cc(-c2cccnc2)nn1	0.82 µg/mL (≈ 2.5 µM)	<20%			
C=C/[N+]([O-])=N/CCc1ccccc1	1.03 µg/mL (≈ 5.84 µM)	<20%			Active
C=C/[N+]([O-])=N/CCCCCCCC(C)=O	2.26 µg/mL (≈ 10.6 µM)	<20%			
C=C/[N+]([O-])=N/CCCCCCCCn1cc(CCCC)nn1	0.69 µg/mL (≈ 2.24 µM)	<20%			
C=C/[N+]([O-])=N/CCCCCCCCn1nncc1CCC(C)C	0.85 µg/mL (≈ 2.64 µM)	<20%			
C=C/[N+]([O-])=N/CCCCCCCCOS(C)(=O)=O	1.18 µg/mL (≈ 4.24 µM)	<20%			
C=C/[N+]([O-])=N/CCCCCCCCn1cc(-c2ccccc2)nn1	0.76 µg/mL (≈ 2.32 µM)	<20%			
C=C/[N+]([O-])=N/CCCCCCCCn1cc(C(C)(C)O)nn1	1.15 µg/mL (≈ 3.72 µM)	<20%			
